US20250230193A1, “CYCLIC COMPOUND HAVING SELECTIVE KRAS INHIBITORY EFFECT ON HRAS AND NRAS” (CHUGAI SEIYAKU KABUSHIKI KAISHA, priority 2022, published 2025)
Where a SMILES comes first, the peptide text is derived from it. Bridges are numbered along the chain shown (N, C = ends). [ ]: non-standard residue; d: D form. The star is where a group is joined. hPhe(3-Cl-4-CF3) = N[C@@H](CCc1ccc(C(F)(F)F)c(Cl)c1)C(=O)O; NPrPhe(4-CF3) = CCCN[C@@H](Cc1ccc(C(F)(F)F)cc1)C(=O)O; NEtPhe(4-Me) = CCN[C@@H](Cc1ccc(C)cc1)C(=O)O; NMeGly(cPent) = CN[C@H](C(=O)O)C1CCCC1; Pro(4,4-F2) = O=C(O)[C@@H]1CC(F)(F)CN1; Hyp = O=C(O)[C@@H]1C[C@@H](O)CN1; NMeD = CN[C@@H](CC(=O)O)C(=O)O; NMeL = CN[C@@H](CC(C)C)C(=O)O; NMeAbu = CC[C@H](NC)C(=O)O; Morpholide = C1CN(*)CCO1; NMeA = CN[C@@H](C)C(=O)O; Ac5c = NC1(C(=O)O)CCCC1; Aze = O=C(O)[C@@H]1CCN1; Sar = CNCC(=O)O

Legend:
[1] = biological target: GDP-bound HRAS wild-type protein (Homo sapiens, UniProt P01112); test: Binding to HRAS by surface plasmon resonance (SPR), Single Cycle Kinetics
Sequence of GDP-bound HRAS wild-type protein (P01112 whole entry): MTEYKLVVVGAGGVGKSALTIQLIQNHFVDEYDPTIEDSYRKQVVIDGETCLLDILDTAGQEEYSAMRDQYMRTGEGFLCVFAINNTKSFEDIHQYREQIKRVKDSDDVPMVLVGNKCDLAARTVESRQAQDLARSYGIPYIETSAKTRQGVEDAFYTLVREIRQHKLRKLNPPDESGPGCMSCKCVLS

[2] = biological target: GDP-bound NRAS wild-type protein (Homo sapiens, UniProt P01111); test: Binding to NRAS by surface plasmon resonance (SPR), Single Cycle Kinetics
Sequence of GDP-bound NRAS wild-type protein (P01111 whole entry): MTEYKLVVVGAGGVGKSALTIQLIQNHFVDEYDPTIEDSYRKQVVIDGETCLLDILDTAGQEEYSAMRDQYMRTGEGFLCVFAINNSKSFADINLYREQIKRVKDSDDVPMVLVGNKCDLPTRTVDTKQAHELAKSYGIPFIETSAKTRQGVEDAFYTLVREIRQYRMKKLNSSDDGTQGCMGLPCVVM

Structure (SMILES): CCO[C@@H]1C[C@H]2C(=O)NC3(CC(C)(C)C3)C(=O)N(C)[C@@H](C3CCCC3)C(=O)N(CC)[C@H](C(=O)N(C)C)CC(=O)N(C)[C@@H](CC)C(=O)N[C@@H]([C@@H](C)CC)C(=O)N(C)CC(=O)N(C)[C@H]3C/C=C\CCN(C3=O)[C@@H](Cc3ccc(C(F)(F)F)cc3)C(=O)N(C)CC(=O)N[C@@H](CCc3cc(F)c(C(F)(F)F)c(F)c3)C(=O)N2C1 [PP1768]
- HRAS/KRAS (ratio of KD value for HRAS to KD value for KRAS) ([1]; KD ratio, GDP-bound HRAS wild-type vs GDP-bound KRAS wild-type, SPR): A (a compound having 10 or more and less than 20 is denoted as A)
- NRAS/KRAS (ratio of KD value for NRAS to KD value for KRAS) ([2]; KD ratio, GDP-bound NRAS wild-type vs GDP-bound KRAS wild-type, SPR): A (a compound having 10 or more and less than 20 is denoted as A)

Structure (SMILES): CCO[C@@H]1C[C@H]2C(=O)NC3(CC(C)(C)C3)C(=O)N(C)[C@@H](C3CCCCC3)C(=O)N(C)[C@H](C(=O)N(C)C)CC(=O)N(C)[C@@H](COC)C(=O)N[C@@H]([C@@H](C)CC)C(=O)N(C)CC(=O)N(C)[C@H]3C/C=C\CCN(C3=O)[C@@H](Cc3ccc(C)cc3)C(=O)N(C)CC(=O)N[C@@H](CCc3cc(F)c(C(F)(F)F)c(F)c3)C(=O)N2C1 [PP2659]
- HRAS/KRAS (ratio of KD value with respect to GDP-bound HRAS wild-type protein to KD value with respect to KRAS) ([1]; class symbols): A (a compound having 10 or more and less than 20 is denoted as A)
- NRAS/KRAS (ratio of KD value with respect to GDP-bound NRAS wild-type protein to KD value with respect to KRAS) ([2]; class symbols): A (a compound having 10 or more and less than 20 is denoted as A)

Structure (SMILES): CCC[C@H]1C(=O)N[C@@H]([C@@H](C)CC)C(=O)N(C2CC2)CC(=O)N(C)[C@H]2C/C=C\CCN(C2=O)[C@@H](Cc2ccc(C(F)(F)F)cc2)C(=O)N(C)CC(=O)N[C@@H](CCc2cc(F)c(C(F)(F)F)c(F)c2)C(=O)N2C[C@H](OCC)C[C@H]2C(=O)NC2(CC(C)(C)C2)C(=O)N(C)[C@@H](CC2CCC2)C(=O)N(C)[C@H](C(=O)N(C)C)CC(=O)N1C [PP2768]
- HRAS/KRAS (ratio of KD value with respect to GDP-bound HRAS wild-type protein to KD value with respect to KRAS) ([1]; class symbols): A (a compound having 10 or more and less than 20 is denoted as A)
- NRAS/KRAS (ratio of KD value with respect to GDP-bound NRAS wild-type protein to KD value with respect to KRAS) ([2]; class symbols): A (a compound having 10 or more and less than 20 is denoted as A)

Structure (SMILES): CC(C)C[C@H]1C(=O)N[C@@H](C2CCC2)C(=O)N(C)CC(=O)N(C)[C@H]2CCCCN(C2=O)[C@@H](Cc2ccc(C(F)(F)F)cc2)C(=O)N(C)CC(=O)N[C@@H](CCc2cc(F)c(C(F)(F)F)c(F)c2)C(=O)N2CCC[C@H]2C(=O)NC2(CCCC2)C(=O)N(C)[C@@H](C2CCCC2)C(=O)N(C)[C@H](C(=O)N2CCOCC2)CC(=O)N1C [PP0596]
- HRAS/KRAS (ratio of KD value with respect to GDP-bound HRAS wild-type protein to KD value with respect to KRAS) ([1]; SPR): B (a compound having 3 or more and less than 10 is denoted as B)
- NRAS/KRAS (ratio of KD value with respect to GDP-bound NRAS wild-type protein to KD value with respect to KRAS) ([2]; SPR): B (a compound having 3 or more and less than 10 is denoted as B)

Structure (SMILES): C#CC[C@H]1C(=O)N[C@@H]([C@@H](C)CC)C(=O)N(C)CC(=O)N(C)[C@H]2C/C=C\CCN(C2=O)[C@@H](Cc2ccc(C(F)(F)F)cc2)C(=O)N(C)CC(=O)N[C@@H](CCc2ccc(C(F)(F)F)c(OC)c2)C(=O)N2C[C@H](OCC)C[C@H]2C(=O)NC2(CC(C)(C)C2)C(=O)N(C)[C@@H](C2CCCC2)C(=O)N(C)[C@H](C(=O)N(C)CC)CC(=O)N1C [PP2051]
- HRAS/KRAS (ratio of KD value with respect to HRAS to KD value with respect to KRAS) ([1]; SPR, GDP-bound HRAS wild-type vs GDP-bound KRAS wild-type): A (a compound having 10 or more and less than 20 is denoted as A)
- NRAS/KRAS (ratio of KD value with respect to NRAS to KD value with respect to KRAS) ([2]; SPR, GDP-bound NRAS wild-type vs GDP-bound KRAS wild-type): A (a compound having 10 or more and less than 20 is denoted as A)

Structure (SMILES): CCO[C@@H]1C[C@H]2C(=O)NC3(CCCC3)C(=O)N(C)[C@@H](C3CCCC3)C(=O)N(C)[C@H](C(=O)N3CCOCC3)CC(=O)N(C)[C@@H](CC(C)C)C(=O)N[C@@H]([C@@H](C)CC)C(=O)N(C)[C@@H](C)C(=O)N3CC[C@H]3C(=O)N(CC)[C@@H](Cc3ccc(C)cc3)C(=O)N(C)CC(=O)N[C@@H](CCc3ccc(C(F)(F)F)c(Cl)c3)C(=O)N2C1 [PP0014] ([NMeL]I[NMeA][Aze][NEtPhe(4-Me)][Sar][hPhe(3-Cl-4-CF3)][Hyp](Et)[Ac5c][NMeGly(cPent)][NMeD]-Morpholide; lactam N-11)
- HRAS/KRAS (ratio of KD for GDP-bound HRAS wild-type to KD for KRAS) ([1]; SPR): C (A compound having a KD ratio of 0.1 or more and less than 3 is denoted as C)
- NRAS/KRAS (ratio of KD for GDP-bound NRAS wild-type to KD for KRAS) ([2]; SPR): C (A compound having a KD ratio of 0.1 or more and less than 3 is denoted as C)

Structure (SMILES): CCCN1C(=O)[C@@H]2CCN2C(=O)[C@H](C)N(C)C(=O)[C@H]([C@@H](C)CC)NC(=O)[C@H](CC)N(C)C(=O)C[C@@H](C(=O)N2CCOCC2)N(C)C(=O)[C@H](C2CCCC2)N(C)C(=O)C2(CCCC2)NC(=O)[C@@H]2CC(F)(F)CN2C(=O)[C@H](CCc2ccc(C(F)(F)F)c(Cl)c2)NC(=O)CN(C)C(=O)[C@@H]1Cc1ccc(C(F)(F)F)cc1 [PP0206] ([NMeAbu]I[NMeA][Aze][NPrPhe(4-CF3)][Sar][hPhe(3-Cl-4-CF3)][Pro(4,4-F2)][Ac5c][NMeGly(cPent)][NMeD]-Morpholide; lactam N-11)
- HRAS/KRAS (ratio of KD for GDP-bound HRAS wild-type to KD for KRAS) ([1]; SPR): B (a compound having 3 or more and less than 10 is denoted as B)
- NRAS/KRAS (ratio of KD for GDP-bound NRAS wild-type to KD for KRAS) ([2]; SPR): C (A compound having a KD ratio of 0.1 or more and less than 3 is denoted as C)
